Reference: article PMC11955804, “Histidine-rich enantiomeric peptide coacervates enhance antigen sequestration and presentation to T cells” (Chemical Science, 2025)

Tests used:
Assay type in all cases: physicochemical
[1] = Critical concentration (Ccrit) of coacervate formation; conditions: 1× PBS, pH 7.4; enantiomeric variants identical
Source text: (§1) Peptide synthesis and purification
(§2) The L- and D-enantiomers of (GHGLY)4, (GHGVY)4 and (GHGPY)4 peptides were purchased from GenScript and used without further modification. (GHGAY)4, (GHGFY)4, (GHGIY)4 and (GHGNY)4 were synthesized using standard Fmoc-SPPS chemistry on Rink Amide with Oxyma (Ethyl cyano(hydroxyimino) acetate) and N, N′-diisopropylcarbodiimide (DIC) as coupling agents on a Liberty Blue microwave-assisted synthesizer. Peptides were cleaved using a cocktail of trifluoroacetic acid (TFA), tri-isopropyl silane (TIS), and H2O (95:2.5:2.5) and extracted and washed in cold diethyl ether. The resulting pellet was dissolved in acetonitrile/water mixture (50:50) and frozen prior to lyophilization. Peptides were purified (~90%) using High Performance Liquid Chromatography (HPLC) on a Dionex Ultimate 3000 HPLC equipped with a diode-array detector on an Agilent Poroshell RP-C18 column (4.6 mm×150 mm), operating at a flow rate of 1 mL/min. Peaks corresponding to 220 nm were collected for MALDI -TOF mass analysis (Shimadzu MALDI-8030) using α-cyno-4-hydroxycinnamic acid matrix (Bruker Daltonics, MA).
(§3) Peptide solutions (0.25–1.5 mM) were prepared in 1×PBS at pH 7.4. Aliquots (140 µL) were pipetted into a 96-well plate and absorbance at 600 nm was measured over 24 h using a Synergy HT plate reader (Biotek, USA) at RT or 37°C with or without agitation. The pH dependence of LLPS formation was assessed in 0.1 M potassium phosphate buffer (with 150 mM NaCl) at different pH values (5.8, 6.6, 7.4, 8.0) and 1 mM peptide concentration. Similarly, 0.1 M potassium phosphate buffer (pH 7.4) with varying salt concent rations (0, 150, 250, 500, 1000 mM […]
Figure S10. Determination of Ccrit for (a) (GHGLY)4, (b) (GHGVY)4, (c) (GHGPY)4 and (d-f) their corresponding enantiomers (1 mM, 1× PBS, pH 7.4).
Table S1. Measured Ccrit values for (GHGXY)4 peptides used in this study.
(1 picture or pasted object on this page, not shown here)

[2] = Encapsulation efficiency measurement; conditions: 1 mM peptide, 1 µM eGFP in PBS; centrifuged 15,000 × g 10 min; fluorescence of supernatant (λex 395 nm, λem 510 nm)
Protocol: Encapsulation efficiency measurements […]
powders to a final peptide concentration of 1 mM. Cargo concentrations in the stock solutions […]
nm and λem: 519 nm). For small molecule dyes, similar methods were used. The encapsulation efficiency was determined as reported previously 12.
Cellular uptake and antigen presentation assays […]
to addition of OVA-loaded coacervates. Final OVA concentration was 1 µg/mL for time- […]
37°C and complete RPMI media served as controls. Soluble OVA and PBS treated cells were used as controls for antigen delivery.

[3] = Droplet coalescence assay; conditions: video still images over 15 min; mixing of fluorophore-loaded droplets
Protocol: wavelength range of 215–260 nm with a bandwidth of 1.00 nm, 0.5 nm step. Solvent background was subtracted from each spectrum and data converted to mean residue ellipticity (MRE).
Droplet coalescence assays
Experiments were conducted to visualize the dynamic process of droplet fusion by capturing a series of still images over 15 min, with each acquisition every 500 ms. Contrast and brightness were adjusted to ensure optimal visibility of the coacervates, and noise cancellation was applied to reduce background interference. Frame correction aligned the images to account for shifts that occurred during capture. Additional enhancements included sharpening to visualize finer details and color correction to ensure that the visual representation closely matched the actual observation. The images were meticulously stacked to create a continuous video sequence that provided a dynamic view of the peptides' behavior, showing the evolution of coacervates from their initial formation, through stabilization and fusion. Significant fusion events were identified and marked with arrows. Advanced tracking algorithms were employed to follow movement and changes within the coacervates, and event segmentation was used to isolate specific interactions […]
Stem cell-derived cardiomyocytes and confocal microscopy […]

[4] = Optical microscopy of coacervate formation (LLPS); conditions: optical microscopy, 1× PBS; across multiple synthesis batches
Source text: NaCl) was used to study ionic strength effects. The absorbance was further converted to turbidity using methods previously described 1 and data was plotted as relative turbidity.
Optical microscopy and dynamic light scattering (DLS)
Droplets were visualized in 1×PBS using NCI Leica DMC4500 microscope in reflection mode with differential interference contrast. Images were captured with a DMC4500 camera under the control of Leica LAS X software (version 3.4.2). […]

Turbidity assay of LLPS = conditions: 1× PBS pH 7.4, absorbance at 600 nm over 24 h, plate reader
Source text: as §1
as §2, with “Peaks corresponding to 220 nm were collected for MALDI -TOF mass analysis (Shimadzu MALDI-8030) using α-cyno-4-hydroxycinnamic acid matrix (Bruker Daltonics, MA).” left out
as §3, with “concentration.” for “concentration. Similarly, 0.1 M potassium phosphate buffer (pH 7.4) with varying salt concent rations (0, 150, 250, 500, 1000 mM”
NaCl) was used to study ionic strength effects. The absorbance was further converted to turbidity using methods previously described 1 and data was plotted as relative turbidity. […]
Droplets were visualized in 1×PBS using NCI Leica DMC4500 microscope in reflection mode with differential interference contrast. […] Coacervate size was measured using 1 mM peptide solutions (1×PBS, pH 7.4) on a ZEN 3600 Zetasizer (Malvern Instruments, UK) using DLS-Zen 0040 specialized cuvettes. […]
Viscosity of the peptide solutions (1 mM or 2 mM) was tested using an ARES 2000ex rotational rheometer (TA Instruments, New Castle, DE). […] Viscosity was measured as a function

Substance | critical concentration (Ccrit) of coacervate formation [1] [mM] | eGFP loading efficiency [2] [%] | droplet fusion (coalescence) [3] | coacervate formation [4] | turbidity over time (A600) (Turbidity assay of LLPS)
(GHGLY)4 [GL 20] | 0.5 | ~90 | multiple rapid fusion events | Consistent coacervate formation | formed a turbid solution instantaneously
(GHGVY)4 [GV 20] | 0.75 | ~75 | did not exhibit fusion behavior | Consistent coacervate formation | steadily increased over 24 h
